Data from US20160051514A1, “METHODS FOR TREATMENT OF CARDIOMYOPATHY” (THE BRIGHAM AND WOMEN'S HOSPITAL, INC., priority 2013, published 2016).
Entries after “also recorded” stand apart in the source; their conditions may differ.

Key:
[1] = system: neonatal rat ventricular myocytes expressing 2057del2 plakoglobin; assay: Immunofluorescence of intercalated disk proteins in neonatal rat ventricular myocytes; assay type: cell-based; conditions: cells expressing 2057del2 plakoglobin; 5 μM, 24 hr
Description: Neonatal rat ventricular myocyte isolation and culture, stretch protocols: Primary cardiac myocyte cultures were prepared from ventricles of 1-day-old Wistar rat pups (Charles River) as previously described.^9 Cells were plated on collagen-coated plastic chamber slides at a density of […] cells/cm^2 and grown for 4 days prior to experimentation. In selected experiments, monolayers grown on collagen--coated silicone membranes were subjected to linear pulsatile stretch using a custom-designed apparatus as described in previous studies.'° Cells were stretched to 110% of resting length at a. frequency of 3 Hz for 1-4 hr in serum-free medium. In other experiments cultures were incubated with reagents including pifitlirin A (5 μM, 1 hr) and SB216763 (5 μM, 24 hr) prior to experimentation. All protocols were approved by the Institutional Animal Care and Use Committee (IACUC).
Viral transfection: A recombinant adenoviral construct expressing 2057del2-plakoglobin was created with the ViraPower Adenoviral Expression system (Invitrogen) using the pAd/CMV/V5-DEST vector through LR clonase-mediated recombination. The V5-tag was used to identify the mutant protein and distinguish it from wildtype plakoglobin. Two days post-plating, monolayers were exposed to viral solution (1:130 dilution in serum-free media, 37° C.) for 1 hr after which viral solution was replaced with complete medium in the presence or absence of reagents.
Immunofluoresence staining and microscopy in cultured cells: Cultures were rinsed in serum-free medium and fixed in 4% paraformaldehyde at room temperature for 5 min or in acetone at −20° C. for 10 min. Fixed cells were immunostained with mouse monoclonal anti-plakoglobin (Sigma), anti-N-cadhcrin (Sigma), anti-Cx43 (Millipore), anti-desmopla.kin (Fitzgerald), anti-SAP97 (Santa Cruz Biotechnology) antibodies and anti-Nav1.5 (kindly provided by Dr. Hugues Abriel, University of Bern, Switzerland) antibodies. Specific immunoreactive signal was detected by laser scanning confocal microscopy as previously described.”
Neonatal rat ventricular myocyte isolation, culture, stretch protocols: Primary cardiac myocyte cultures were prepared from ventricles of 1-day-old Wistar rat pups (Charles River) as previously described (36). Cells were plated on collagen-coated plastic chamber slides at a density of 2.4×10^5 cells/cm2 and grown for 4 days prior to experimentation. In selected experiments, monolayers grown on collagen-coated silicone membranes were subjected to linear pulsatile stretch using a custom-designed apparatus as described in previous studies (35). Cells were stretched to 110% of resting length at a frequency of 3 Hz for 1-4 hr in serum-free medium. In other experiments cultures were incubated with reagents including pifithrin A (5 μM, 1 hr) and SB216763 (0.1-10 μM for 12 or 24 hr) prior to experimentation. Vehicle controls (DMSO) were included in all experiments.
Viral transfection: A recombinant adenoviral construct expressing 2057del2 plakoglobin was created with the ViraPower Adenoviral Expression™ system (Invitrogen) using the pAd/CMV/V5-DEST vector through LR clonase-mediated recombination. The V5-tag was used to identify the mutant protein and distinguish it from wildtype plakoglobin. Two days post-plating, monolayers were exposed to viral solution (1:130 dilution in serum-free media, 37° C.) for 1 hr after which viral solution was replaced with complete medium in the presence or absence of reagents. Immunofluorescence staining and microscopy in cultured cells: Cultures were rinsed in serum-free medium and fixed in 4% paraformaldehyde at 25° C. for 5 min or in acetone at −20° C. for 10 min. Fixed cells were immunostained with mouse monoclonal anti-plakoglobin (Sigma), anti-N-cadherin (Sigma), anti-Cx43 (Millipore), anti-desmoplakin (Fitzgerald), anti-SAP97 (Santa Cruz Biotechnology) antibodies and anti-Nav1.5 antibodies (rabbit polyclonal).

[2] = system: 2057del2 plakoglobin zebrafish; assay: Survival and cardiac physiology in the zebrafish model of ACM; assay type: in vivo; conditions: data not shown
Description: In-house software (implemented in MATLAB™) was used to determine heart rate, while measurements of ventricular long and short axes in both diastole and systole were obtained using ImageJ™. Cardiac output was measured as diastolic minus systolic ventricular volume multiplied by heart rate, as outlined by Shin et al (30). Fractional shortening was calculated as end-diastolic diameter minus end-systolic diameter divided by end-diastolic diameter.
Survival studies: Embryos were kept in petri dishes until 7 dpf and then transferred to nursery tanks with larval food. Observations for phenotype and survival were recorded for several weeks. Data are presented as a Kaplan-Meier curve using Graphpad™ software.

[3] = system: neonatal rat ventricular myocytes expressing 2057del2 plakoglobin; assay: TUNEL assay of myocyte apoptosis; assay type: cell-based
Description: (§1) TUNEL assay: Apoptotic cells in cultures were detected by terminal deoxynucleotidyl transferase-mediated biotinylated UTP nick end-labeling (TUNEL) assay using the ApopTag™ Fluorescein Direct in Situ Apoptosis Detection Kit (Millipore) as previously described.^9 Nuclei were stained with DAPI, and TUNEL-positive and total nuclei were counted under a laser scanning confocal microscope in 5 fields per chamber.
as §1, with “ApopTag” for “ApopTag™”, “KitTM” for “Kit”, “according to the manufacturer's instructions.” for “as previously described.^9”, “DAPI;” for “DAPI, and”, “chamber or silicone membrane in stretch experiments.” for “chamber.”

Row | Compound | Subcellular distribution of plakoglobin immunoreactive signal (junctional vs intracellular/nuclear) [1] | Effectiveness of other GSK-3β inhibitors in attenuating the mutant phenotype compared with SB216763 [2] | further results
1 | O=C(Nc1ccc([N+](=O)[O-])cc1Cl)c1cc(Cl)ccc1O [niclosamide, reference compound] | increased nuclear localization of plakoglobin |  | 
2 | [Cl-].[Li+] [LiC1, reference compound] |  | none of which were as effective | 
3 | Cc1ccc(C(=O)Cn2c3c(sc2=N)CCCC3)cc1 [pifithrin-A, reference compound] |  |  | Apoptosis in transfected myocytes exposed to stretch ([3]; 4 hr of stretch, vs stretch without inhibitor): significantly reduced apoptosis; Apoptosis in cells expressing 2057del2 plakoglobin ([3]; pifithrin-A 5 μM): could be prevented
4 | O=C1Nc2cc(Br)ccc2/C1=C1/Nc2ccccc2/C1=N\O [BIO, 6-bromoindirubin-3′-oxime, reference compound] |  | do not exhibit the therapeutic benefits; also recorded: none of which were as effective | 
5 | Cc1c[nH]c(-c2cnc(NCCNc3ccc(C#N)cn3)nc2-c2ccc(Cl)cc2Cl)n1 [CHIR99021, reference compound] | intensified plakoglobin signal in nuclei | do not exhibit the therapeutic benefits; also recorded: none of which were as effective | 
6 | Cn1cc(C2=C(c3coc4ccccc34)C(=O)NC2=O)c2cc(Br)ccc21 [BIP 135, reference compound] |  | none of which were as effective | 
